The source made the active and inactive calls. No rule for the calls is given here.

The Ki is a dissociation constant, usually derived from enzyme kinetics or from competition with a known ligand. What is called IC50 is the concentration that inhibits the measured activity by half.

In assay [1] the target is Dual specificity tyrosine-phosphorylation-regulated kinase 4 (Homo sapiens, UniProt Q9NR20). In kind it is functional.
The target of the next assay is T1, Exodeoxyribonuclease V (Escherichia coli (strain K12), UniProt P04993+P07648+P08394).
T1 sequence (P04993 whole entry): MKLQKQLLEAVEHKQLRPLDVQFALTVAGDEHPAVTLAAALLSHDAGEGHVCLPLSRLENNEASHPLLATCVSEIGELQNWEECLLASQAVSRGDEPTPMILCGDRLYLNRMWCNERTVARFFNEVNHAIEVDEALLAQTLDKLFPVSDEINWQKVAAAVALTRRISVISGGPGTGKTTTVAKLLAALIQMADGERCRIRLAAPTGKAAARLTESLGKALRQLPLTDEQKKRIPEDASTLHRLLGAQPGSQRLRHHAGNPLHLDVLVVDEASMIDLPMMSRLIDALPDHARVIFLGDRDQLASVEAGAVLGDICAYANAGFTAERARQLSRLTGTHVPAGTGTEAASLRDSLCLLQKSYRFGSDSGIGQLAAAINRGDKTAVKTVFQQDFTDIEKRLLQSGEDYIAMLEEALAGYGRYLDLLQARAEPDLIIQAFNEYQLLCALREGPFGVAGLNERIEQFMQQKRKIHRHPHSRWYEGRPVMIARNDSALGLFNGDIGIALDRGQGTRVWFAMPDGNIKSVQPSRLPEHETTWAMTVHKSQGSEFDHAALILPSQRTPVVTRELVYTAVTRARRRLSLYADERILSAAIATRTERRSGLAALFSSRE
T1 sequence (P07648 whole entry): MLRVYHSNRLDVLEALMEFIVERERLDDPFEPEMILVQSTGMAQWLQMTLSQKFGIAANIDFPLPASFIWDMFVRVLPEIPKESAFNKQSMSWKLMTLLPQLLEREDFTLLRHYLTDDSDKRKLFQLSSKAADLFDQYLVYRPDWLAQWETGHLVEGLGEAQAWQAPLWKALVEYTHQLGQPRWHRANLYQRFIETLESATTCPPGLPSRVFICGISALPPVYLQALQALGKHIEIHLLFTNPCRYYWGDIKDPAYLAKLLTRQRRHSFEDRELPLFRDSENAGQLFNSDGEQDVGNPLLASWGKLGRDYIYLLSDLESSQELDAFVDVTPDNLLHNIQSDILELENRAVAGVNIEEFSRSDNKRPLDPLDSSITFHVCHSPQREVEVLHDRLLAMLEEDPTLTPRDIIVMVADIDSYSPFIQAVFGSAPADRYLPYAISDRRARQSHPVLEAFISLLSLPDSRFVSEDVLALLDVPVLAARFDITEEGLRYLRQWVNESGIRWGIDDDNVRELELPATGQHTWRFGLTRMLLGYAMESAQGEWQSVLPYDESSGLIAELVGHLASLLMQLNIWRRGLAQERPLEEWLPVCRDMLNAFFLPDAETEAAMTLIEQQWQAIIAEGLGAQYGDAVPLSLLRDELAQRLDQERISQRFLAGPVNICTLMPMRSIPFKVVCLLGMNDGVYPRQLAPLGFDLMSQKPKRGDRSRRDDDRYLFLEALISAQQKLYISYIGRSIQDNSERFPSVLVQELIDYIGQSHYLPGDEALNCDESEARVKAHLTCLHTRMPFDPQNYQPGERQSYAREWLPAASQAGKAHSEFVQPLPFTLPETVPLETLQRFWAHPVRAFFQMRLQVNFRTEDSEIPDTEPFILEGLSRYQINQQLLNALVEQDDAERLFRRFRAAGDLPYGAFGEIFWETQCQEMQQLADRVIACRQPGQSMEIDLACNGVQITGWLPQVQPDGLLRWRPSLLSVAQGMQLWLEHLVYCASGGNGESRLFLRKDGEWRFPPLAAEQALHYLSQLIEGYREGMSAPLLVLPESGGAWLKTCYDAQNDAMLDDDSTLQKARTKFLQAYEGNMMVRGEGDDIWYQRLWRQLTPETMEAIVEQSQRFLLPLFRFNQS
T1 sequence (P08394 whole entry): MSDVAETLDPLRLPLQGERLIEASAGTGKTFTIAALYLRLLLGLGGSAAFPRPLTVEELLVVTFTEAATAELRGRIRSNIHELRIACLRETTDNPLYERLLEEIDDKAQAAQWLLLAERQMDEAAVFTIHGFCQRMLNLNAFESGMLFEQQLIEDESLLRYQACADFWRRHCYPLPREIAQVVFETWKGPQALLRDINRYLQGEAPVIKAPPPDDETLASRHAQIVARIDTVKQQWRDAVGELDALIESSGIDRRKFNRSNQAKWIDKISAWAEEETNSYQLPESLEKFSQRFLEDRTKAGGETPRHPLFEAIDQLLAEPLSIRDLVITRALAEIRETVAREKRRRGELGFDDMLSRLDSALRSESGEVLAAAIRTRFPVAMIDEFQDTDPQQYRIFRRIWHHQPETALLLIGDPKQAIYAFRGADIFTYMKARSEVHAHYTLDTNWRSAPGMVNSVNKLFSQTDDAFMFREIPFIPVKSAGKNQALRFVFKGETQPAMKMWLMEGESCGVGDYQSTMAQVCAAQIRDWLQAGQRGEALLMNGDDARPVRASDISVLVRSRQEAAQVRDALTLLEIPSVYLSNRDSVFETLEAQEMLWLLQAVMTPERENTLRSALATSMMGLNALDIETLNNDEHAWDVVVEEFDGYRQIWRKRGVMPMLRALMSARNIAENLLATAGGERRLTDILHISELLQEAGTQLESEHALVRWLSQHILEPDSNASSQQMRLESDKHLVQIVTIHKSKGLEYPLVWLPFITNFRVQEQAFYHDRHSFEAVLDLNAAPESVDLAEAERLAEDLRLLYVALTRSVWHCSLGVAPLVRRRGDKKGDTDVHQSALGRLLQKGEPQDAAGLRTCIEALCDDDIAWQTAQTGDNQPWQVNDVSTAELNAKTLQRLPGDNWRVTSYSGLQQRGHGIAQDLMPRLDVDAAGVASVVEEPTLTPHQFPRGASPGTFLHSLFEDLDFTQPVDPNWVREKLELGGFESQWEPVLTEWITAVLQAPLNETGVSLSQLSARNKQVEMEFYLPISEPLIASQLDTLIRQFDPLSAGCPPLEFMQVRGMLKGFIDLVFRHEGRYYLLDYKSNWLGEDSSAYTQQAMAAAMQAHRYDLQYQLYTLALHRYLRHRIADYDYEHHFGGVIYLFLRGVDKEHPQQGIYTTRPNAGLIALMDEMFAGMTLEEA
The experiment in a line: RecBCD inhibition via phage-restricted bacterial growth – absorbance, V66 E. coli, mutant T4 phage, counter-screen for AddAB inhibitor project, dose response (AID 492957). The format is functional, cell-based, Escherichia coli str. K-12 substr. MG1655. For orientation: The purpose of a counterscreen is to sort out artefacts and off-target activity.

Dual specificity tyrosine-phosphorylation-regulated kinase 4, sequence (Q9NR20 whole entry): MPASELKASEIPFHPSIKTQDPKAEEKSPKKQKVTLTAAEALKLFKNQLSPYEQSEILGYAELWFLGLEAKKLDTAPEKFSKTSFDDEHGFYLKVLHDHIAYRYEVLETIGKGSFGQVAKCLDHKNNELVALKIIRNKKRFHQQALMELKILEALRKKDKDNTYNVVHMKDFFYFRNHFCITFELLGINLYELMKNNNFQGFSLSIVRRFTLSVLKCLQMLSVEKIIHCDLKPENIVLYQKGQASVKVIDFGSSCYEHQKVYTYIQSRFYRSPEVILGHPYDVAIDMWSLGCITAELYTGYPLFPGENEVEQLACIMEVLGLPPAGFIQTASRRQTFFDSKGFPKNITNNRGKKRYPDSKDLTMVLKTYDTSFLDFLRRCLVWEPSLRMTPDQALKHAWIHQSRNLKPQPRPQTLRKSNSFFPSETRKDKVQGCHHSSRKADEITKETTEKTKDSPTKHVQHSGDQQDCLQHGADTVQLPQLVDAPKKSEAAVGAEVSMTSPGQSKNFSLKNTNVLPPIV

Take `CS(=O)(=O)N(Cc1ccc2[nH]c(=O)c3cccn3c2c1)C1CC1`: the inhibition constant Ki in assay [1] is 0.0398 µM (active).

With `Cc1cc(NC(c2ccc(Cl)cc2)c2ccc3cccnc3c2O)no1` (configuration not stated), the IC50 on Exodeoxyribonuclease V is > 119 µM (inactive).

Source of the values: ChEMBL document CHEMBL1201862, “PubChem BioAssay data set” (2004).
